Test results published in patent US12492173B2, “Herbicidal substituted N-tetrazolyl aryl carboxamides” (Bayer Aktiengesellschaft, priority 2019, dated 2025).

How the values were obtained:
Assay type in all cases: in vivo
Avena fatua = assay: Post-emergence herbicidal action, AVEFA; design: key: % herbicidal action vs untreated; 100 = plants died, 0 = like control
Procedure, shortened: (§1)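 Values are visual estimates of herbicidal action, from 0% (as untreated) to 100% (dead), made about 3 weeks after plants at one-leaf stage in sandy loam were sprayed with the formulated compound.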

Veronica persica [1] = assay: Pre-emergence herbicidal action, VERPE; conditions: dosage 320 g/ha, scored visually after 3 weeks vs untreated controls (100% = plants have died)
Procedure, shortened: (§2)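 Percent damage, assessed visually after 3 weeks and referenced to untreated controls, reflects a pre-emergence treatment. Spray liquid equated to 600 to 800 l/ha with 0.2% wetting agent, applied to the covering soil over seeds in sandy loam.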

Matricaria inodora = assay: Pre-emergence herbicidal action, MATIN; conditions: dosage 320 g/ha, scored visually after 3 weeks vs untreated controls (100% = plants have died)
Procedure, shortened: as §2

Polygonum convolvulus = assay: Pre-emergence herbicidal action, POLCO; conditions: dosage 320 g/ha, scored visually after 3 weeks vs untreated controls (100% = plants have died)
Procedure, shortened: as §2

Viola tricolor = assay: Pre-emergence herbicidal action, VIOTR; conditions: dosage 320 g/ha, scored visually after 3 weeks vs untreated controls (100% = plants have died)
Procedure, shortened: as §2

Veronica persica [2] = assay: Post-emergence herbicidal action, VERPE; design: key: % herbicidal action vs untreated; 100 = plants died, 0 = like control
Procedure, shortened: as §1

SMILES | herbicidal action AVEFA (Avena fatua; Dosage 80 g/ha) | herbicidal activity VERPE (Veronica persica [1]) | herbicidal activity MATIN (Matricaria inodora) | herbicidal activity POLCO (Polygonum convolvulus) | herbicidal activity VIOTR (Viola tricolor) | herbicidal action VERPE (Veronica persica [2]; Dosage 80 g/ha) | herbicidal action AVEFA (Avena fatua; post-emergence, dosage 80 g/ha) | herbicidal action VERPE (Veronica persica [2]; post-emergence, dosage 80 g/ha)
CCn1nnnc1NC(=O)c1ccc(C(F)F)c(CSC)c1C [Example 2-107] | 80 | 100% | 100% | 80% | 100% | 100 |  | 
CCn1nnnc1NC(=O)c1ccc(C(F)(F)F)c(C[S+](C)[O-])c1OC (stereo not drawn) [Example 2-135] | 100 | 100% | 100% | 90% | 100% | 100 |  | 
CCn1nnnc1NC(=O)c1ccc(C(F)(F)F)c(CS(C)(=O)=O)c1OC [Example 2-136] | 100 | 100% | 100% | 100% | 100% | 100 |  | 
CCn1nnnc1NC(=O)c1ccc(C(F)(F)F)c(CSC)c1SC [Example 2-161] |  | 100% | 100% | 90% | 100% |  | 90% | 100%
CCn1nnnc1NC(=O)c1ccc(C(F)(F)F)c(CS(C)(=O)=O)c1SC [Example 2-163] | 100 | 100% | 100% | 100% | 100% | 100 |  | 
CCn1nnnc1NC(=O)c1ccc(C(F)(F)F)c(CSC)c1Br [Example 2-380] |  | 100% | 100% | 90% | 100% |  | 100% | 100%
CCSCc1c(C(F)(F)F)ccc(C(=O)Nc2nnnn2CC)c1Br [Example 2-383] |  | 100% | 100% | 90% | 100% |  | 100% | 100%
CCCn1nnnc1NC(=O)c1ccc(C(F)F)c(CSC)c1C [Example 3-107] | 80 | 100% | 100% | 90% | 100% | 100 |  | 
CCCn1nnnc1NC(=O)c1ccc(C(F)(F)F)c(CSC)c1OC [Example 3-134] | 90 | 100% | 100% | 80% | 100% | 100 |  | 
CCCn1nnnc1NC(=O)c1ccc(C(F)(F)F)c(CSC)c1Cl [Example 3-296] | 90 | 100% | 100% | 90% | 100% | 100 |  | 
CCCn1nnnc1NC(=O)c1ccc(C(F)(F)F)c(CSCC)c1Cl [Example 3-299] | 80 | 100% | 100% | 90% | 100% | 100 |  | 
CCCn1nnnc1NC(=O)c1ccc(C(F)F)c(CSC)c1Cl [Example 3-320] | 90 | 100% | 100% | 90% | 100% | 100 |  | 
CCCn1nnnc1NC(=O)c1ccc(C(F)(F)F)c(CSC)c1Br [Example 3-380] | 100 | 90% | 100% | 80% | 100% | 80 |  | 
CCCn1nnnc1NC(=O)c1ccc(C(F)(F)F)c(C[S+](C)[O-])c1Br (stereo not drawn) [Example 3-381] |  | 100% | 100% | 80% | 100% |  | 100% | 100%
CCCn1nnnc1NC(=O)c1ccc(C(F)(F)F)c(CSCC)c1Br [Example 3-383] | 90 | 100% | 100% | 90% | 100% | 100 |  | 
